Reference: patent publication US10221227B2, “Peptide for promoting osteogenic differentiation or vascularization and use thereof” (INDUSTRY FOUNDATION OF CHONNAM NATIONAL UNIVERSITY, priority 2015, dated 2019)
Ends that are not written are not given here.

What was measured:
mesenchymal stem cells = test: Measurement of mineralization by Alizarin Red staining; format: cell-based, Balb/c mouse; conditions: cells added with 1 μg/μL of BFP 5; tested at 0.01, 0.1, 1 and 10 μg/μL, osteogenic differentiation medium, two additional days
Description: Mesenchymal stem cells (1×10^4), which were cloned from Balb/c mouse bone marrow stromal cells) were aliquoted into 10% FBS-containing DMEM and cultured in an atmosphere (about 37° C., 5% CO2) for 3 days, and thereby the mesenchymal stem cells to be used as osteoblasts in the present experiment were prepared. Osteogenic differentiation medium (hereinafter, “ODM”) consists of DMEM which contains 50 μg/mL of ascorbic acid, 10^−8 M dexamethasone, 10 mM β-glycerophosphate, etc.
The differentiation of the mesenchymal stem cells into osteoblasts causes calcium accumulation. Here, the degree of calcium accumulation refers to the degree of differentiation of osteoblasts, and the degree of accumulation of calcium ions can be confirmed by observing the degree of staining of the cells that are stained red, via Alizarin Red staining. In this regard, the mineralization was measured via Alizarin Red staining. That is, as the differentiation into osteoblasts are promoted there are more regions that can be stained by Alizarin Red. Accordingly, the degree of osteogenic differentiation can be confirmed by adding Alizarin Red to the osteogenic differentiation medium, treating with the peptide of SEQ ID NO: 1 (BFP 5), and observing the degree of Alizarin Red staining. […]

[1] = system: Runx2, alkaline phosphatase, Osteopontin, collagen type 1, DLX5, and Osterix; test: Expression of osteoblast-specific genes under a fluorescent microscope using antibodies (FIG. 5); format: cell-based; conditions: cells treated with BFP 5, fluorescent microscope using antibodies
Text: An osteoblast-specific protein is expressed upon differentiation into osteoblasts. When the antibody to the protein was reacted to cells and the degree of binding was confirmed by a fluorescent microscope.

[2] = system: alkaline phosphatase and Osterix; test: Level of proteins expressed in osteoblasts (FIG. 6); format: cell-based; conditions: FIG. 6, protein level
Osterix = Osterix expression at varied concentrations of BFP 5 (FIG. 8); format: cell-based
VEGF = test: Effect on vascularization: expression of VEGF (FIG. 9); format: cell-based; conditions: cells treated with BFP 5; alongside VEGF, FGF, SDF-1a, SDF-1g
alkaline phosphatase = conditions: at 1 μg/μL of BFP 5; RT-PCR / enzyme activity kit

## PPRACPTARALCEIR (cysteine pairing not given here) [SDF-1d-derived peptide consisting of 15 amino acids, named bone forming peptide 5]
Mesenchymal stem cells
  Alizarin Red staining (mineralization accumulated via osteogenic differentiation): strongest staining
[1]
  expression of DLX5: strongly expressed
  expression of Osteopontin: strongly expressed
  expression of Osterix: strongly expressed
  expression of Runx2: strongly expressed
  expression of alkaline phosphatase: strongly expressed
  expression of collagen type 1: strongly expressed
[2]
  Osterix protein expressed in osteoblasts: strongly expressed
  alkaline phosphatase protein expressed in osteoblasts: strongly expressed
Osterix
  concentration of BFP 5 at which expression (Osterix) is at the highest level: 0.1 µg/mL
VEGF
  expression of VEGF, a protein associated with vascularization: strong expression
Alkaline phosphatase
  expression of alkaline phosphatase: strong expression
